Active and inactive are the calls of the source. The rule behind the calls is not given here.
How the values were obtained:
[1] = target: Tyrosine-protein phosphatase non-receptor type 6 (Homo sapiens, UniProt P29350); assay: Inhibition of SHP1 (unknown origin) expressed in Escherichia coli using pNPP substrate after 5 mins by spectrophotometric analysis
[2] = target: T1, Tyrosine-protein phosphatase non-receptor type 1 (Homo sapiens, UniProt P18031); assay: Inhibition of PTP1B (unknown origin) expressed in Escherichia coli using pNPP substrate after 5 mins by spectrophotometric analysis
T1 sequence (P18031 whole entry): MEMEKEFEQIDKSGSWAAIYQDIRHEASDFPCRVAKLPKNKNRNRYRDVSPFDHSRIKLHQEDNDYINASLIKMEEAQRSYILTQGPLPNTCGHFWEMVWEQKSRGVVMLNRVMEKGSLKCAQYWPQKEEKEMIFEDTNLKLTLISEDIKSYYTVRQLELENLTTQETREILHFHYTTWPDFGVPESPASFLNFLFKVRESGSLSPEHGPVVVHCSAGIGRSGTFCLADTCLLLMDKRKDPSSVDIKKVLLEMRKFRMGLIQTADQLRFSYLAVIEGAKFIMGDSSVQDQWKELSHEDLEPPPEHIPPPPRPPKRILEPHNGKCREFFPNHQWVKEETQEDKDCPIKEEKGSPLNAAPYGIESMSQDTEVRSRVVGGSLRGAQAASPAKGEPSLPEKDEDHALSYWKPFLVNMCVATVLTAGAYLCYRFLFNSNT

[3] = Inhibition of Mycobacterium tuberculosis PTPB expressed in Escherichia coli using pNPP substrate after 5 mins by spectrophotometric analysis
[4] = target: T2, Receptor-type tyrosine-protein phosphatase C (Homo sapiens, UniProt P08575); assay: Inhibition of CD45 (unknown origin) expressed in Escherichia coli using pNPP substrate after 5 mins by spectrophotometric analysis
T2 sequence (P08575 whole entry): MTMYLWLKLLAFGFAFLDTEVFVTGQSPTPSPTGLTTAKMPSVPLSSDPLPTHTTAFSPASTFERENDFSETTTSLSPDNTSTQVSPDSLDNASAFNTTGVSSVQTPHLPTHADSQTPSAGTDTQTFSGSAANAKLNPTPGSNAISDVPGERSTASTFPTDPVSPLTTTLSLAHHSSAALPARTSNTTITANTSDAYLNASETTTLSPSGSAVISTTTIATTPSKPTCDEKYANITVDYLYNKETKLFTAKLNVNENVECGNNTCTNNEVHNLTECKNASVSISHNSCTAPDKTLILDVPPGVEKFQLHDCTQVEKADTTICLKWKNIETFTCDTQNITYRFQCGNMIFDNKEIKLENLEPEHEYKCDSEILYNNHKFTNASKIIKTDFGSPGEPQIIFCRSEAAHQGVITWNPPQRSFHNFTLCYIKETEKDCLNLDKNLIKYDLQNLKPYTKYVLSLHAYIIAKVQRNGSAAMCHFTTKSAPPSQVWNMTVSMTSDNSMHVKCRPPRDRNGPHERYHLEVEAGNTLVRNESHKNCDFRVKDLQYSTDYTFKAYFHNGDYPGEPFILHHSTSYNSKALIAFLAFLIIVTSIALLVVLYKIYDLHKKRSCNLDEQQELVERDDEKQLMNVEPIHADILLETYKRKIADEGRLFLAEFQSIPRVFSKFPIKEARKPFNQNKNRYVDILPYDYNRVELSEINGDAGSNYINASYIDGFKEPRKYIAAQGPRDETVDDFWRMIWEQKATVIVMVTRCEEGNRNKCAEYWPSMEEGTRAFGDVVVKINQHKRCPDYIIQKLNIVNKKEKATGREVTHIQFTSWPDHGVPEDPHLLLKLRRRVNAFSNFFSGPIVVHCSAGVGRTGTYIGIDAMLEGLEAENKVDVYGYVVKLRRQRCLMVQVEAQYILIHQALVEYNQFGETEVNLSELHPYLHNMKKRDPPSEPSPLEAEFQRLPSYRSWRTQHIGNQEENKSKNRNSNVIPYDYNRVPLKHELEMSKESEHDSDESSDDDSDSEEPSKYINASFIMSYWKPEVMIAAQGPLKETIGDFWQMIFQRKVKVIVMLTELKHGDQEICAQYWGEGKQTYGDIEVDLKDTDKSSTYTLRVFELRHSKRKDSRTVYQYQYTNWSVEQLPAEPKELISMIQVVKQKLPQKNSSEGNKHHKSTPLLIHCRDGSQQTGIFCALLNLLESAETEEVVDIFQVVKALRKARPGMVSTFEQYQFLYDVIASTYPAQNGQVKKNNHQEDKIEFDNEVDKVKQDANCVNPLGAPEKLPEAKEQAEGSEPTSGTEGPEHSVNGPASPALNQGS

RAW264.7 [5] = assay: Inhibition of Mycobacterium tuberculosis PTPB expressed in mouse RAW264.7 macrophages assessed as induction of apoptosis after 1 hr by annexin V-FITC /propidium iodide staining-based flow cytometric analysis; type: cell-based
RAW264.7 [6] = assay: Inhibition of Mycobacterium tuberculosis PTPB expressed in mouse RAW264.7 macrophages assessed as increase in caspase activity after 1 hr by spectrophotometric analysis; type: cell-based
RAW264.7 [7] = assay: Inhibition of Mycobacterium tuberculosis PTPB expressed in mouse RAW264.7 macrophages assessed as decrease in Akt activity after 1 hr by Western blotting analysis; type: cell-based
[8] = system: Mycobacterium tuberculosis; assay: Inhibition of Mycobacterium tuberculosis PTPB expressed in mouse RAW264.7 macrophages assessed as restoration of IFNgamma-induced IL-6 production after 1 hr by ELISA
[9] = system: Mycobacterium tuberculosis; assay: Inhibition of Mycobacterium tuberculosis PTPB expressed in mouse RAW264.7 macrophages assessed as restoration of IFNgamma-induced p38 activation after 1 hr by Western blotting analysis
[10] = system: Mycobacterium tuberculosis; assay: Inhibition of Mycobacterium tuberculosis PTPB expressed in mouse RAW264.7 macrophages assessed as restoration of IFNgamma-induced ERK1/2 activation after 1 hr by Western blotting analysis

Sequence of Tyrosine-protein phosphatase non-receptor type 6 (P29350 whole entry): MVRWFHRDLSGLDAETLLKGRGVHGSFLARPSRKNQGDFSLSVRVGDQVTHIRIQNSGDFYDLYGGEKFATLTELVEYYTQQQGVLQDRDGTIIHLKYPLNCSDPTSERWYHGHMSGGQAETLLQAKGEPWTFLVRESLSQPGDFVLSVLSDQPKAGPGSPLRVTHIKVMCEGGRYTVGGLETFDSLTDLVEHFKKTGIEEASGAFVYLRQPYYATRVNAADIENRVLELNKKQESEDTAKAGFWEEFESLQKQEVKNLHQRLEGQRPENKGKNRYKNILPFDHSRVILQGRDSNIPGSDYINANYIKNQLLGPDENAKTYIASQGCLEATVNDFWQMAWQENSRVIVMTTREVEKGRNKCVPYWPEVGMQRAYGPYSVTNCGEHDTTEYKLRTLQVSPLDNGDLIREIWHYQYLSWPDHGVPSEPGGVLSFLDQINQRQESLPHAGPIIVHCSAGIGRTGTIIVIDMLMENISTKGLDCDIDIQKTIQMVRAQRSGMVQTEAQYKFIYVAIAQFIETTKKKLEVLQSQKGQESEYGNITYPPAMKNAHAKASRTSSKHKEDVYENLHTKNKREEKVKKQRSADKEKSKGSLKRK

SMILES	IC50 [1] [µM]	IC50 [2] [µM]	IC50 [3] [µM]	IC50 [4] [µM]	inhibition (RAW264.7 [5])	inhibition (RAW264.7 [6])	inhibition (RAW264.7 [7])	inhibition [8]	inhibition [9]	inhibition [10]
C[C@]12CCC(=O)C=C1CC[C@@H]1[C@@H]2CC[C@@]2(C)[C@H]1CC[C@]2(O)C#Cc1c(-c2ccccc2)oc2cc(O)c(C(=O)O)cc12	> 100	> 50	5.09	> 100						
O=C(O)c1cc2c(CCc3ccc(OC(F)(F)F)cc3)c(-c3ccccc3)oc2cc1O	7.1	8.4	3.4	18.9	inactive	inactive	inactive	inactive	inactive	inactive
C#Cc1c(-c2ccccc2)oc2cc(O)c(C(=O)O)cc12	> 50	> 50		80						
O=C(O)c1cc2c(C#CCO)c(-c3ccccc3)oc2cc1O	> 100	> 100	22	> 100						
O=C(O)c1cc2c(CCc3ccc(Oc4ccccc4)cc3)c(-c3ccccc3)oc2cc1O	3.7	8		14.2						
O=C(O)c1cc2c(CCc3cccc(C(F)(F)F)c3)c(-c3ccccc3)oc2cc1O		7.4		10.1						
O=C(O)c1cc2c(CCc3cccc(F)c3)c(-c3ccccc3)oc2cc1O	11.5	60		120						
O=C(O)c1cc2c(/C=C\c3cc(F)cc(F)c3)c(-c3ccccc3)oc2cc1O		8	1.2	13.1						

Source: ChEMBL document CHEMBL2311454, “Discovery and evaluation of novel inhibitors of mycobacterium protein tyrosine phosphatase B from the 6-Hydroxy-benzofuran-5-carboxylic acid scaffold” (J Med Chem, 2013)
